From patent US20230293526A1, “METHOD FOR TREATING CANCER WITH A REVERSE TRANSCRIPTASE INHIBITOR” (PrimeFour Therapeutics, Inc., priority 2020, published 2023)

Assays:
[1] = tested on: cancer cell lines; experiment: Cancer cell proliferation activity of representative nucleosides, CellTiterGlo 72 h (Example 7, Tables 8 and 9); assay type: cell-based
Outline: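 Cancer cell lines seeded and incubated at 37° C overnight, then exposed to nucleosides (final DMSO 0.1%) for 72 h at 37° C with 5% or 10% CO2. Viability read by CellTiterGlo luminescence and normalized to 0.1% DMSO (100%) and 10 μM staurosporine (0%) controls.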

[2] = tested on: human LINE-1; experiment: Human LINE-1 (L1) retrotransposition dual-luciferase reporter assay in HeLa cells; assay type: cell-based; conditions: Homo sapiens, HeLa, 72 h, read-out: Human LINE-1 IC50 (Human L1 activity inhibition)
Outline: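 HeLa cells transfected with dual-luciferase L1 plasmid pYX017 (100 ng/well), dosed immediately after with serially diluted compounds (0.2% DMSO final) in triplicate and incubated 72 h at 37 °C. Relative L1 activity = Firefly/Renilla ×10,000; IC50 from logistic non-linear regression.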

Nc1nc(=O)n([C@@H]2C=C[C@H](CO)O2)cc1F [Elvucitabine, reference compound]
IC50 ([1]; 72 h, 5637, 72 h (Table 9)): > 50 µM
IC50 ([1]; 72 h, CLS439, 72 h (Table 9)): > 50 µM
IC50 ([1]; 72 h, HS729, 72 h (Table 9)): > 50 µM
IC50 ([1]; 72 h, J82, 72 h (Table 9)): > 50 µM
IC50 ([1]; 72 h, JAR, 72 h (Table 9)): > 50 µM
IC50 ([1]; 72 h, MT3, 72 h (Table 9)): > 50 µM
IC50 ([1]; 72 h, PC3, 72 h (Table 9)): > 50 µM
IC50 ([1]; 72 h, RD, 72 h (Table 9)): > 50 µM
IC50 ([1]; 72 h, T24, 72 h (Table 9)): > 50 µM
IC50 ([1]; Homo sapiens, 22Rv1, 72 h, 22RV1, 72 h (Table 9)): > 50 µM
IC50 ([1]; Homo sapiens, 786-0, 72 h, 786O, 72 h (Table 9)): > 50 µM
IC50 ([1]; Homo sapiens, A204, 72 h, A204, 72 h (Table 9)): 0.41 µM
IC50 ([1]; Homo sapiens, A549, 72 h, A549, 72 h (Table 9)): > 50 µM
IC50 ([1]; Homo sapiens, A673, 72 h, A673, 72 h (Table 9)): > 50 µM
IC50 ([1]; Homo sapiens, A2780, 72 h, A2780, 72 h (Table 9)): > 50 µM
IC50 ([1]; Homo sapiens, A-375, 72 h, A375, 72 h (Table 9)): > 50 µM
IC50 ([1]; Homo sapiens, A-431, 72 h, A431, 72 h (Table 9)): 17.1 µM
IC50 ([1]; Homo sapiens, ACHN, 72 h, 72 h (Table 9)): 1.87 µM
IC50 ([1]; Homo sapiens, ASPC1, 72 h, ASPC1, 72 h (Table 9)): 2.46 µM
IC50 ([1]; Homo sapiens, BT-20, 72 h, BT20, 72 h (Table 9)): > 50 µM
IC50 ([1]; Homo sapiens, BXPC-3, 72 h, BXPC3, 72 h (Table 9)): > 50 µM
IC50 ([1]; Homo sapiens, C-33-A, 72 h, C33A, 72 h (Table 9)): > 50 µM
IC50 ([1]; Homo sapiens, CAKI-1, 72 h, CAKI1, 72 h (Table 9)): 2.95 µM
IC50 ([1]; Homo sapiens, COLO 205, 72 h, COLO205, 72 h (Table 9)): > 50 µM
IC50 ([1]; Homo sapiens, COLO-678, 72 h, COLO678, 72 h (Table 9)): > 50 µM
IC50 ([1]; Homo sapiens, Ca-Ski, 72 h, CASKI, 72 h (Table 9)): > 50 µM
IC50 ([1]; Homo sapiens, Caco-2, 72 h, CACO2, 72 h (Table 9)): > 50 µM
IC50 ([1]; Homo sapiens, Calu-6, 72 h, CALU6, 72 h (Table 9)): > 50 µM
IC50 ([1]; Homo sapiens, DLD-1, 72 h, DLD1, 72 h (Table 9)): > 50 µM
IC50 ([1]; Homo sapiens, DU-145, 72 h, DU145, 72 h (Table 9)): 1.41 µM
IC50 ([1]; Homo sapiens, EFO-21, 72 h, EFO21, 72 h (Table 9)): > 50 µM
IC50 ([1]; Homo sapiens, EJ-28, 72 h, EJ28, 72 h (Table 9)): > 50 µM
IC50 ([1]; Homo sapiens, Granta-519, 72 h, GRANTA-519, 72 h (Table 9)): 1.35 µM
IC50 ([1]; Homo sapiens, HCT-15, 72 h, HCT15, 72 h (Table 9)): > 50 µM
IC50 ([1]; Homo sapiens, HCT-116, 72 h, HCT116, 72 h (Table 9)): > 50 µM
IC50 ([1]; Homo sapiens, HEK293, 72 h, HEK293, 72 h (Table 9)): > 50 µM
IC50 ([1]; Homo sapiens, HL-60, 72 h, HL-60, 72 h (Table 9)): 3.36 µM
IC50 ([1]; Homo sapiens, HT-29, 72 h, HT29, 72 h (Table 9)): > 50 µM
IC50 ([1]; Homo sapiens, HT-1080, 72 h, HT1080, 72 h (Table 9)): > 50 µM
IC50 ([1]; Homo sapiens, HeLa, 72 h, 72 h (Table 9)): > 50 µM
IC50 ([1]; Homo sapiens, HepG2, 72 h, HEPG2, 72 h (Table 9)): 6.29 µM
IC50 ([1]; Homo sapiens, Hs-578T, 72 h, HS578T, 72 h (Table 9)): > 50 µM
IC50 ([1]; Homo sapiens, IGROV-1, 72 h, IGROV1, 72 h (Table 9)): > 50 µM
IC50 ([1]; Homo sapiens, IMR-90, 72 h, IMR90, 72 h (Table 9)): > 50 µM
IC50 ([1]; Homo sapiens, JEG-3, 72 h, JEG3, 72 h (Table 9)): > 50 µM
IC50 ([1]; Homo sapiens, JIMT-1, 72 h, JIMT1, 72 h (Table 9)): 8.56 µM
IC50 ([1]; Homo sapiens, K562, 72 h, K-562, 72 h (Table 9)): > 50 µM
IC50 ([1]; Homo sapiens, Kasumi 1, 72 h, KASUMI-1, 72 h (Table 9)): 18.7 µM
IC50 ([1]; Homo sapiens, L-363, 72 h, L-363, 72 h (Table 9)): > 50 µM
IC50 ([1]; Homo sapiens, LoVo, 72 h, 72 h (Table 9)): > 50 µM
IC50 ([1]; Homo sapiens, MCF7, 72 h, MCF7, 72 h (Table 9)): > 50 µM
IC50 ([1]; Homo sapiens, MDA-MB-231, 72 h, MDAMB231, 72 h (Table 9)): 5.38 µM
IC50 ([1]; Homo sapiens, MDA-MB-435, 72 h, MDAMB435, 72 h (Table 9)): > 50 µM
IC50 ([1]; Homo sapiens, MDA-MB-436, 72 h, MDAMB436, 72 h (Table 9)): > 50 µM
IC50 ([1]; Homo sapiens, MDA-MB-468, 72 h, MDAMB468, 72 h (Table 9)): > 50 µM
IC50 ([1]; Homo sapiens, MG-63, 72 h, MG63, 72 h (Table 9)): > 50 µM
IC50 ([1]; Homo sapiens, MHH-ES-1, 72 h, MHHES1, 72 h (Table 9)): 1.96 µM
IC50 ([1]; Homo sapiens, MIA PaCa-2, 72 h, MIAPACA2, 72 h (Table 9)): > 50 µM
IC50 ([1]; Homo sapiens, MINO, 72 h, 72 h (Table 9)): 4.93 µM
IC50 ([1]; Homo sapiens, MV4-11, 72 h, MV4-11, 72 h (Table 9)): > 50 µM
IC50 ([1]; Homo sapiens, NCI-H23, 72 h, NCI-H23, 72 h (Table 9)): > 50 µM
IC50 ([1]; Homo sapiens, NCI-H82, 72 h, NCIH82, 72 h (Table 9)): > 50 µM
IC50 ([1]; Homo sapiens, NCI-H292, 72 h, NCIH292, 72 h (Table 9)): 4.68 µM
IC50 ([1]; Homo sapiens, NCI-H460, 72 h, NCIH460, 72 h (Table 9)): > 50 µM
IC50 ([1]; Homo sapiens, OVCAR-3, 72 h, OVCAR3, 72 h (Table 9)): > 50 µM
IC50 ([1]; Homo sapiens, OVCAR-4, 72 h, OVCAR4, 72 h (Table 9)): > 50 µM
IC50 ([1]; Homo sapiens, PANC-1, 72 h, PANC1, 72 h (Table 9)): > 50 µM
IC50 ([1]; Homo sapiens, PLC-PRF-5, 72 h, PLCPRF5, 72 h (Table 9)): > 50 µM
IC50 ([1]; Homo sapiens, Panc1005, 72 h, PANC1005, 72 h (Table 9)): > 50 µM
IC50 ([1]; Homo sapiens, Ramos, 72 h, 72 h (Table 9)): 1.96 µM
IC50 ([1]; Homo sapiens, SAOS-2, 72 h, SAOS2, 72 h (Table 9)): > 50 µM
IC50 ([1]; Homo sapiens, SF-268, 72 h, SF268, 72 h (Table 9)): > 50 µM
IC50 ([1]; Homo sapiens, SF-295, 72 h, SF295, 72 h (Table 9)): > 50 µM
IC50 ([1]; Homo sapiens, SK-BR-3, 72 h, SKBR3, 72 h (Table 9)): 3.47 µM
IC50 ([1]; Homo sapiens, SK-HEP1, 72 h, SKHEP1, 72 h (Table 9)): > 50 µM
IC50 ([1]; Homo sapiens, SK-LMS-1, 72 h, SKLMS1, 72 h (Table 9)): > 50 µM
IC50 ([1]; Homo sapiens, SK-MEL-5, 72 h, SKMEL5, 72 h (Table 9)): > 50 µM
IC50 ([1]; Homo sapiens, SK-MEL-28, 72 h, SKMEL28, 72 h (Table 9)): > 50 µM
IC50 ([1]; Homo sapiens, SK-N-AS, 72 h, SKNAS, 72 h (Table 9)): > 50 µM
IC50 ([1]; Homo sapiens, SK-N-SH, 72 h, SKNSH, 72 h (Table 9)): 6.99 µM
IC50 ([1]; Homo sapiens, SK-OV-3, 72 h, SKOV3, 72 h (Table 9)): > 50 µM
IC50 ([1]; Homo sapiens, SNB-75, 72 h, SNB75, 72 h (Table 9)): > 50 µM
IC50 ([1]; Homo sapiens, SU-DHL10, 72 h, SU-DHL-10, 72 h (Table 9)): > 50 µM
IC50 ([1]; Homo sapiens, SU-DHL-6, 72 h, SU-DHL-6, 72 h (Table 9)): 4.2 µM
IC50 ([1]; Homo sapiens, SW-620, 72 h, SW620, 72 h (Table 9)): > 50 µM
IC50 ([1]; Homo sapiens, TE-671, 72 h, TE671, 72 h (Table 9)): > 50 µM
IC50 ([1]; Homo sapiens, THP-1, 72 h, THP-1, 72 h (Table 9)): 2.04 µM
IC50 ([1]; Homo sapiens, U2OS, 72 h, 72 h (Table 9)): > 50 µM
IC50 ([1]; Homo sapiens, U-87 MG, 72 h, U87MG, 72 h (Table 9)): 18.5 µM
IC50 ([1]; Homo sapiens, UMUC3, 72 h, UMUC3, 72 h (Table 9)): > 50 µM
IC50 ([1]; Homo sapiens, UO-31, 72 h, UO31, 72 h (Table 9)): 11.2 µM
IC50 ([1]; Homo sapiens, WSU-NHL, 72 h, 72 h (Table 9)): 2.46 µM
IC50 ([1]; NCI-H358M, 72 h, NCIH358M, 72 h (Table 9)): 4.54 µM
IC50 ([1]; PBMC, 72 h, 72 h (Table 9)): > 50 µM
IC50 ([1]; RD-ES, 72 h, RDES, 72 h (Table 9)): > 50 µM
IC50 [2]: 0.092 µM
